According to ChEMBL document CHEMBL3886280, “Nicotinic receptor compounds” (2015):

Biological target: Neuronal acetylcholine receptor subunit alpha-7 (Rattus norvegicus, UniProt Q05941)
Test: Inhibition Assay: Compounds ([…]) were also evaluated for inhibition of binding to a7 nAChR using [125I]iodoMLA as previously reported in Carroll et al. The binding assays were conducted and the Ki values calculated as described in Carroll, F. I. et al., "Synthesis, nicotinic acetylcholine receptor binding, and antinociceptive properties of 2-exo-2-(2',3'-disubstituted 5'-pyridinyl)-7- …

Sequence of Neuronal acetylcholine receptor subunit alpha-7 (Q05941 whole entry): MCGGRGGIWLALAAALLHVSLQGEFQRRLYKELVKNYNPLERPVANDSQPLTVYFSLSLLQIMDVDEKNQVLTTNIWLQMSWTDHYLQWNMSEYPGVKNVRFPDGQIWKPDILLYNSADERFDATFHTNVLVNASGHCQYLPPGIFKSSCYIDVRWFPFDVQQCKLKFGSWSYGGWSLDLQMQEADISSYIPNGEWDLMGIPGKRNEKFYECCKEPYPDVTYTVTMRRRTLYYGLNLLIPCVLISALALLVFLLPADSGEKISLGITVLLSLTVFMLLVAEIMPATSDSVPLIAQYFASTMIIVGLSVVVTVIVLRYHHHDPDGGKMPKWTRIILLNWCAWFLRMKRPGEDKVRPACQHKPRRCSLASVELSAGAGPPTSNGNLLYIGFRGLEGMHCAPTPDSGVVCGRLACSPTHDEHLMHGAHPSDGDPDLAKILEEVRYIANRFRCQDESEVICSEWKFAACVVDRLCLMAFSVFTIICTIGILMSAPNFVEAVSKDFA

Compound | Ki
Fc1ncc(C2CC3CCC2N3)cc1-c1cccc(Cl)c1 (configuration not stated) | > 2 µM
Fc1ncc(C2CC3CCC2N3)cc1-c1ccccc1 (racemic) | > 2 µM
